Results reported in patent US6358885B1, “Substituted phenylheterocyclic herbicides” (Mississippi State University, priority 1992, dated 2002).

Assays:
velvetleaf = experiment: Test C preemergence/postemergence greenhouse plant response rating 0 to 100; format: in vivo, Abutilon theophrasti; conditions: POSTEMERGENCE; for Plant response rating, Velvetleaf: 0 to 100 scale
Outline: (§1)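 Compounds in non-phytotoxic solvent applied preemergence to sandy loam one day after planting, postemergence at the 1–4 leaf stage, or to ~2.5 cm floodwater over silt loam.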

wild buckwheat = experiment: Test B preemergence/postemergence greenhouse plant response rating 0 to 10; format: in vivo, Polygonum convolvulus; conditions: 0 to 10 scale
Outline: (§2)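 Postemergence treatment of plants two to eighteen cm tall ran alongside preemergence treatment of planted seed, each using compound in a non-phytotoxic solvent.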

sugar beet = experiment: as above; format: in vivo, Beta vulgaris; conditions: 0 to 10 scale
Outline: as §2

corn [1] = experiment: Test C preemergence/postemergence greenhouse plant response rating 0 to 100; format: in vivo, Zea mays; conditions: POSTEMERGENCE; for Plant response rating, Corn: 0 to 100 scale
Outline: as §1

barnyardgrass = experiment: Test C flood test plant response rating 0 to 100; format: in vivo, Echinochloa crus-galli; conditions: for Plant response rating Barnyardgrass 2: flood test species listed under POSTEMERGENCE, 0 to 100 scale
Outline: as §1

bedstraw [2] = experiment: Test C preemergence/postemergence greenhouse plant response rating 0 to 100; format: in vivo, Galium aparine; conditions: POSTEMERGENCE; for Plant response rating, Bedstraw: 0 to 100 scale
Outline: as §1

duck salad = experiment: Test C flood test plant response rating 0 to 100; format: in vivo, Heteranthera limosa; conditions: for Plant response rating Duck salad: flood test species listed under POSTEMERGENCE, 0 to 100 scale
Outline: as §1

downy brome = experiment: Test C preemergence/postemergence greenhouse plant response rating 0 to 100; format: in vivo, Bromus tectorum; conditions: POSTEMERGENCE; for Plant response rating Downy Brome: 0 to 100 scale
Outline: as §1

sorghum = experiment: as above; format: in vivo, Sorghum bicolor; conditions: POSTEMERGENCE; for Plant response rating, Sorghum: 0 to 100 scale
Outline: as §1

corn [3] = experiment: Test B preemergence/postemergence greenhouse plant response rating 0 to 10; format: in vivo, Zea mays; conditions: 0 to 10 scale
Outline: as §2

cotton = experiment: Test C preemergence/postemergence greenhouse plant response rating 0 to 100; format: in vivo, Gossypium hirsutum; conditions: POSTEMERGENCE; for Plant response rating, Cotton: 0 to 100 scale
Outline: as §1

bedstraw [4] = experiment: Test B preemergence/postemergence greenhouse plant response rating 0 to 10; format: in vivo, Galium aparine; conditions: 0 to 10 scale
Outline: as §2

giant foxtail = experiment: Test C preemergence/postemergence greenhouse plant response rating 0 to 100; format: in vivo, Setaria faberii; conditions: POSTEMERGENCE; for Plant response rating, Giant foxtail: 0 to 100 scale
Outline: as §1

chickweed = experiment: Test B preemergence/postemergence greenhouse plant response rating 0 to 10; format: in vivo, Stellaria media; conditions: 0 to 10 scale
Outline: as §2

wild oat = experiment: Test C preemergence/postemergence greenhouse plant response rating 0 to 100; format: in vivo, Avena fatua; conditions: POSTEMERGENCE; for Plant response rating, Wild oat: 0 to 100 scale
Outline: as §1

wheat = experiment: as above; format: in vivo, Triticum aestivum; conditions: POSTEMERGENCE; for Plant response rating, Wheat: 0 to 100 scale
Outline: as §1

morningglory = experiment: as above; format: in vivo, Ipomoea hederacea; conditions: POSTEMERGENCE; for Plant response rating, Morningglory: 0 to 100 scale
Outline: as §1

[5] = POSTEMERGENCE section, flood test, Rate 4 g/ha
[6] = Rate 16 g/ha, under POSTEMERGENCE head (flood test species)

Question: How did the “Plant response rating, Velvetleaf” value (velvetleaf; 62 g/ha) turn out when CC(C)OC(=O)c1cc(-c2nn3c(c2Cl)CCCC3)c(F)cc1Cl [Compound 44] was run?
Answer: The value was 100.

Question: What about the “Plant response rating, Velvetleaf” value (velvetleaf; 250 g/ha) of the same compound?
Answer: Its value is 100.

Question: And the “Plant response rating (0 to 100), Velvetleaf” value (velvetleaf; Rate 4 g/ha)?
Answer: The value was 80.

Question: What about the “Plant response rating (0 to 100), Velvetleaf” value (velvetleaf; Rate 16 g/ha) of the same compound?
Answer: The value was 90.

Question: What about the “Plant response rating, Wild buckwheat” value (wild buckwheat; POSTEMERGENCE, Rate 50 g/ha) of the same compound?
Answer: Its value is 10.

Question: What about the “Plant response rating, Wild buckwheat” value (wild buckwheat; PREEMERGENCE, Rate 50 g/ha) of the same compound?
Answer: The value was 9.

Question: What about the “Plant response rating, Wild buckwheat” value (wild buckwheat; Rate 200 g/ha, POSTEMERGENCE) of the same compound?
Answer: The value was 10.

Question: And the “Plant response rating, Wild buckwheat” value (wild buckwheat; Rate 200 g/ha, PREEMERGENCE)?
Answer: Its value is 9.

Question: What about the “Plant response rating, Sugar beet” value (sugar beet; POSTEMERGENCE, Rate 50 g/ha) of the same compound?
Answer: The value was 10.

Question: And the “Plant response rating, Sugar beet” value (sugar beet; PREEMERGENCE, Rate 50 g/ha)?
Answer: Its value is 10.

Question: And the “Plant response rating, Sugar beet” value (sugar beet; Rate 200 g/ha, POSTEMERGENCE)?
Answer: The value was 10.

Question: And the “Plant response rating, Sugar beet” value (sugar beet; Rate 200 g/ha, PREEMERGENCE)?
Answer: Its value is 10.

Question: What about the “Plant response rating, Corn” value (corn [1]; 62 g/ha) of the same compound?
Answer: Its value is 50.

Question: What about the “Plant response rating, Corn” value (corn [1]; 250 g/ha) of the same compound?
Answer: Its value is 90.

Question: What about the “Plant response rating (0 to 100), Corn” value (corn [1]; Rate 4 g/ha) of the same compound?
Answer: Its value is 30.

Question: And the “Plant response rating (0 to 100), Corn” value (corn [1]; Rate 16 g/ha)?
Answer: Its value is 40.

Question: And the “Plant response rating (0 to 100), Barnyardgrass 2” value (barnyardgrass; [5])?
Answer: Its value is 65.

Question: And the “Plant response rating (0 to 100), Barnyardgrass 2” value (barnyardgrass; [6])?
Answer: Its value is 100.

Question: And the “Plant response rating Barnyardgrass 2” value (barnyardgrass; 62 g/ha)?
Answer: Its value is 100.

Question: What about the “Plant response rating Barnyardgrass 2” value (barnyardgrass; 250 g/ha) of the same compound?
Answer: Its value is 100.

Question: What about the “Plant response rating, Bedstraw” value (bedstraw [2]; 62 g/ha) of the same compound?
Answer: Its value is 80.

Question: What about the “Plant response rating, Bedstraw” value (bedstraw [2]; 250 g/ha) of the same compound?
Answer: The value was 100.

Question: And the “Plant response rating (0 to 100), Bedstraw” value (bedstraw [2]; Rate 4 g/ha)?
Answer: The value was 60.

Question: And the “Plant response rating (0 to 100), Bedstraw” value (bedstraw [2]; Rate 16 g/ha)?
Answer: The value was 80.

Question: And the “Plant response rating (0 to 100), Duck salad” value (duck salad; [5])?
Answer: Its value is 0.

Question: And the “Plant response rating (0 to 100), Duck salad” value (duck salad; [6])?
Answer: Its value is 30.

Question: And the “Plant response rating Duck salad” value (duck salad; 62 g/ha)?
Answer: The value was 70.

Question: What about the “Plant response rating Duck salad” value (duck salad; 250 g/ha) of the same compound?
Answer: Its value is 90.

Question: And the “Plant response rating Downy Brome” value (downy brome; 62 g/ha)?
Answer: Its value is 50.

Question: And the “Plant response rating Downy Brome” value (downy brome; 250 g/ha)?
Answer: Its value is 90.

Question: And the “Plant response rating (0 to 100), Downy Brome” value (downy brome; Rate 4 g/ha)?
Answer: Its value is 20.

Question: And the “Plant response rating (0 to 100), Downy Brome” value (downy brome; Rate 16 g/ha)?
Answer: The value was 40.

Question: What about the “Plant response rating, Sorghum” value (sorghum; 62 g/ha) of the same compound?
Answer: Its value is 60.

Question: And the “Plant response rating, Sorghum” value (sorghum; 250 g/ha)?
Answer: The value was 100.

Question: And the “Plant response rating (0 to 100), Sorghum” value (sorghum; Rate 4 g/ha)?
Answer: The value was 30.

Question: What about the “Plant response rating (0 to 100), Sorghum” value (sorghum; Rate 16 g/ha) of the same compound?
Answer: Its value is 40.

Question: What about the “Plant response rating, Corn” value (corn [3]; POSTEMERGENCE, Rate 50 g/ha) of the same compound?
Answer: Its value is 4.

Question: And the “Plant response rating, Corn” value (corn [3]; POSTEMERGENCE, Rate 200 g/ha)?
Answer: Its value is 6.

Question: What about the “Plant response rating, Corn” value (corn [3]; PREEMERGENCE, Rate 50 g/ha) of the same compound?
Answer: The value was 2.

Question: What about the “Plant response rating, Corn” value (corn [3]; Rate 200 g/ha, PREEMERGENCE) of the same compound?
Answer: Its value is 3.

Question: And the “Plant response rating, Cotton” value (cotton; 62 g/ha)?
Answer: Its value is 100.

Question: What about the “Plant response rating, Cotton” value (cotton; 250 g/ha) of the same compound?
Answer: Its value is 100.

Question: What about the “Plant response rating (0 to 100), Cotton” value (cotton; Rate 4 g/ha) of the same compound?
Answer: Its value is 90.

Question: What about the “Plant response rating (0 to 100), Cotton” value (cotton; Rate 16 g/ha) of the same compound?
Answer: The value was 100.

Question: What about the “Plant response rating, Bedstraw” value (bedstraw [4]; POSTEMERGENCE, Rate 50 g/ha) of the same compound?
Answer: Its value is 9.

Question: And the “Plant response rating, Bedstraw” value (bedstraw [4]; POSTEMERGENCE, Rate 200 g/ha)?
Answer: Its value is 9.

Question: What about the “Plant response rating, Bedstraw” value (bedstraw [4]; PREEMERGENCE, Rate 50 g/ha) of the same compound?
Answer: The value was 8.

Question: What about the “Plant response rating, Bedstraw” value (bedstraw [4]; Rate 200 g/ha, PREEMERGENCE) of the same compound?
Answer: Its value is 10.

Question: And the “Plant response rating, Giant foxtail” value (giant foxtail; 62 g/ha)?
Answer: Its value is 60.

Question: What about the “Plant response rating, Giant foxtail” value (giant foxtail; 250 g/ha) of the same compound?
Answer: The value was 100.

Question: And the “Plant response rating (0 to 100), Giant foxtail” value (giant foxtail; Rate 4 g/ha)?
Answer: Its value is 20.

Question: What about the “Plant response rating (0 to 100), Giant foxtail” value (giant foxtail; Rate 16 g/ha) of the same compound?
Answer: Its value is 40.

Question: What about the “Plant response rating, Chickweed” value (chickweed; POSTEMERGENCE, Rate 200 g/ha) of the same compound?
Answer: The value was 10.

Question: What about the “Plant response rating, Chickweed” value (chickweed; PREEMERGENCE, Rate 50 g/ha) of the same compound?
Answer: The value was 9.

Question: What about the “Plant response rating, Chickweed” value (chickweed; Rate 200 g/ha, PREEMERGENCE) of the same compound?
Answer: The value was 9.

Question: What about the “Plant response rating, Wild oat” value (wild oat; 62 g/ha) of the same compound?
Answer: Its value is 50.

Question: What about the “Plant response rating, Wild oat” value (wild oat; 250 g/ha) of the same compound?
Answer: The value was 60.

Question: And the “Plant response rating (0 to 100), Wild oat” value (wild oat; Rate 4 g/ha)?
Answer: Its value is 20.

Question: What about the “Plant response rating (0 to 100), Wild oat” value (wild oat; Rate 16 g/ha) of the same compound?
Answer: Its value is 30.

Question: What about the “Plant response rating, Wheat” value (wheat; 62 g/ha) of the same compound?
Answer: Its value is 50.

Question: And the “Plant response rating, Wheat” value (wheat; 250 g/ha)?
Answer: Its value is 80.

Question: And the “Plant response rating (0 to 100), Wheat” value (wheat; Rate 4 g/ha)?
Answer: The value was 20.

Question: What about the “Plant response rating (0 to 100), Wheat” value (wheat; Rate 16 g/ha) of the same compound?
Answer: The value was 30.

Question: What about the “Plant response rating, Morningglory” value (morningglory; 62 g/ha) of the same compound?
Answer: Its value is 95.

Question: What about the “Plant response rating, Morningglory” value (morningglory; 250 g/ha) of the same compound?
Answer: Its value is 100.

Question: And the “Plant response rating (0 to 100), Morningglory” value (morningglory; Rate 4 g/ha)?
Answer: The value was 50.

Question: What about the “Plant response rating (0 to 100), Morningglory” value (morningglory; Rate 16 g/ha) of the same compound?
Answer: Its value is 70.
